Experimental data as given in patent US11565998B2, “Succinate prodrug, compositions containing the succinate prodrug and uses thereof” (ABLIVA AB, priority 2019, dated 2023).

Columns and labels:
Format in all cases: physicochemical
[1] = Mineral instability (inorganic salts in water); conditions: for Percentage of Compound 1 remaining compared to T = 0: WFl, 1 mg/ml, room temperature
Experimental: Compound 1 Batch 14 (2-3 mg) was dissolved in water for injection at room temperature (WFI) (1 mg/ml) containing different sources of minerals commonly found in tap water (with different accompanying counter ions to be able to distinguish differences between the effects of cation or anion) and samples were taken at different time intervals for HPLC analysis.
Mineral sources used in the form of inorganic salts:
CuCl2, CaCl2), NiSO4, CoCl2, NH4Cl, MnCl2, NaF, NaNO3, CuSO4, Ca(NO3)2, AlSO4, CaCO3, (NH4)2CO3.

[2] = Carbonate instability (calcium and carbonate sources); conditions: for Percentage of Compound 1 remaining compared to T = 0: 1 mg/ml
Experimental: Compound 1 Batch 14 (2-3 mg) was dissolved in HPLC grade water at room temperature (1 mg/ml) containing different sources of calcium and carbonate ions (two concentrations for each source, with the pH recorded) and samples were taken at different time intervals for HPLC analysis.
Calcium and carbonate sources used in the form of inorganic salts: […]

[3] = Carbonate concentration dependence; conditions: HPLC water, 1 mg/ml
Experimental: Compound 1 Batch 14 (2-3 mg) was dissolved in HPLC grade water (1 mg/ml) containing different concentrations of calcium carbonate and samples were taken at different time intervals for HPLC analysis.

In the case of `COC(=O)CCC(=O)SCCNC(C)=O` [Compound 1, Methyl 3-[(2-acetylaminoethylthio)carbonyl]propionate], the “Percentage of Compound 1 remaining compared to T = 0” value (shortened to “Percentage of Compound 1 remaining”) ([1]; batch 14, day 0) is reported as 100%, the “Percentage of Compound 1 remaining” value ([1]; batch 14, day 7) is reported as 98.7% and the “Percentage of Compound 1 remaining” value ([1]; batch 14, day 14) is reported as 97.7%. The “degradation in aqueous solution with carbonate ions” value ([1]; vs other mineral salts) was “degrades more rapidly”, the “Percentage of Compound 1 remaining” value ([2]; (NH4)2CO3 (3.4 mM, pH 8.9), batch 14, day 0) was 100% and the “Percentage of Compound 1 remaining” value ([2]; (NH4)2CO3 (3.4 mM, pH 8.9), batch 14, day 3) was 99.6%. The “Percentage of Compound 1 remaining” value ([2]; (NH4)2CO3 (3.4 mM, pH 8.9), batch 14, day 17) was 85.5%, the “Percentage of Compound 1 remaining” value ([2]; (NH4)2CO3 (3.4 mM, pH 9.3), batch 14, day 0) was 100% and the “Percentage of Compound 1 remaining” value ([2]; (NH4)2CO3 (3.4 mM, pH 9.3), batch 14, day 3) was 98.9%. For the same compound, the “Percentage of Compound 1 remaining” value ([2]; (NH4)2CO3 (3.4 mM, pH 9.3), batch 14, day 17) was 57.5%, the “Percentage of Compound 1 remaining” value ([2]; Ca(NO3)2 (0.34 mM, pH 7.3), batch 14, day 0) was 100% and the “Percentage of Compound 1 remaining” value ([2]; Ca(NO3)2 (0.34 mM, pH 7.3), batch 14, day 3) was 101%. The “Percentage of Compound 1 remaining” value ([2]; Ca(NO3)2 (0.34 mM, pH 7.3), batch 14, day 17) was 97.5%, the “Percentage of Compound 1 remaining” value ([2]; Ca(NO3)2 (3.4 mM, pH 7.2), batch 14, day 0) was 100% and the “Percentage of Compound 1 remaining” value ([2]; Ca(NO3)2 (3.4 mM, pH 7.2), batch 14, day 3) was 100%. For the same compound, the “Percentage of Compound 1 remaining” value ([2]; Ca(NO3)2 (3.4 mM, pH 7.2), batch 14, day 17) was 97.1%, the “Percentage of Compound 1 remaining” value ([2]; CaCO3 (0.34 mM, pH 7.6), batch 14, day 0) was 100% and the “Percentage of Compound 1 remaining” value ([2]; CaCO3 (0.34 mM, pH 7.6), batch 14, day 3) was 93.8%. The “Percentage of Compound 1 remaining” value ([2]; CaCO3 (0.34 mM, pH 7.6), batch 14, day 17) was 50.4%, the “Percentage of Compound 1 remaining” value ([2]; CaCO3 (3.4 mM, pH 7.6), batch 14, day 0) was 100% and the “Percentage of Compound 1 remaining” value ([2]; CaCO3 (3.4 mM, pH 7.6), batch 14, day 3) was 93.6%. For the same compound, the “Percentage of Compound 1 remaining” value ([2]; CaCO3 (3.4 mM, pH 7.6), batch 14, day 17) was 49.5%, the “Percentage of Compound 1 remaining” value ([2]; CaCl2 (0.34 mM, pH 7.4), batch 14, day 0) was 100% and the “Percentage of Compound 1 remaining” value ([2]; CaCl2 (0.34 mM, pH 7.4), batch 14, day 3) was 98.4%. The “Percentage of Compound 1 remaining” value ([2]; CaCl2 (0.34 mM, pH 7.4), batch 14, day 17) was 95.1%, the “Percentage of Compound 1 remaining” value ([2]; CaCl2 (3.4 mM, pH 7.5), batch 14, day 0) was 100% and the “Percentage of Compound 1 remaining” value ([2]; CaCl2 (3.4 mM, pH 7.5), batch 14, day 3) was 101%. The “Percentage of Compound 1 remaining” value ([2]; CaCl2 (3.4 mM, pH 7.5), batch 14, day 17) was 96.7%, the “Percentage of Compound 1 remaining” value ([2]; HPLC water (control, pH 6.5), batch 14, day 0) was 100% and the “Percentage of Compound 1 remaining” value ([2]; HPLC water (control, pH 6.5), batch 14, day 3) was 94.3%. For the same compound, the “Percentage of Compound 1 remaining” value ([2]; HPLC water (control, pH 6.5), batch 14, day 17) was 91.4%, the “degradation in aqueous solution with carbonate ions” value ([2]; vs calcium chloride / nitrate and control) was “degrades more rapidly” and the “Percentage of Compound 1 remaining” value ([3]; CaCO3 (0 mM), batch 14, day 0) was 100%. For the same compound, the “Percentage of Compound 1 remaining” value ([3]; CaCO3 (0 mM), batch 14, day 7) was 98.7%, the “Percentage of Compound 1 remaining” value ([3]; CaCO3 (0 mM), batch 14, day 14) was 98.6% and the “Percentage of Compound 1 remaining” value ([3]; CaCO3 (0.425 mM), batch 14, day 0) was 100%. The “Percentage of Compound 1 remaining” value ([3]; CaCO3 (0.425 mM), batch 14, day 7) was 98.1%, the “Percentage of Compound 1 remaining” value ([3]; CaCO3 (0.425 mM), batch 14, day 14) was 98.4% and the “Percentage of Compound 1 remaining” value ([3]; CaCO3 (0.85 mM), batch 14, day 0) was 100%. For the same compound, the “Percentage of Compound 1 remaining” value ([3]; CaCO3 (0.85 mM), batch 14, day 7) was 97.8%, the “Percentage of Compound 1 remaining” value ([3]; CaCO3 (0.85 mM), batch 14, day 14) was 97.1% and the “Percentage of Compound 1 remaining” value ([3]; CaCO3 (1.7 mM), batch 14, day 0) was 100%. The “Percentage of Compound 1 remaining” value ([3]; CaCO3 (1.7 mM), batch 14, day 7) was 93.8%, the “Percentage of Compound 1 remaining” value ([3]; CaCO3 (1.7 mM), batch 14, day 14) was 90.8% and the “Percentage of Compound 1 remaining” value ([3]; CaCO3 (3.4 mM), batch 14, day 0) was 100%. The “Percentage of Compound 1 remaining” value ([3]; CaCO3 (3.4 mM), batch 14, day 7) was 83.4% and the “Percentage of Compound 1 remaining” value ([3]; CaCO3 (3.4 mM), batch 14, day 14) was 71.4%.
